Common to all, as to format: functional
In one assay the test system is HT-29. Nature of the assay: Cytotoxicity against human HT-29 cells after 6 days by MTT assay. Conditions: HT-29, 144 h, read-out: ED50 (the source's name).
Another assay has as its system MCF7. Kind of assay: Cytotoxicity against human MCF7 cells after 6 days by MTT assay. Conditions: MCF7, 144 h, read-out: ED50 (the source's name).
For a further assay, the system named is SK-MEL. Kind of assay: Cytotoxicity against human SK-MEL cells after 6 days by MTT assay. The note with it: 144 h, read-out: ED50 (the source's name).
The test system of the next assay is A549. Kind of assay: Cytotoxicity against human A549 cells after 6 days by MTT assay. Conditions: A549, 144 h, read-out: ED50 (the source's name).
A further assay concerns Malme-3M. Kind of assay: Cytotoxicity against human MALME-3M cells after 6 days by MTT assay. The note with it: 144 h, read-out: ED50 (the source's name).

The structures appear in SMILES notation. ≈ marks a conversion by molar mass, not a printed value.

For `O=c1cc(-c2cccc(O)c2)oc2c(O)c(O)ccc12`, the EC50 with HT-29 was 4.18 µg/mL (≈ 15.5 µM); in the assay on MCF7, 3.71 µg/mL (≈ 13.7 µM); in the assay on SK-MEL it was 3.66 µg/mL (≈ 13.5 µM); in the assay on A549 it was 4.65 µg/mL (≈ 17.2 µM); with Malme-3M it was 4.8 µg/mL (≈ 17.8 µM).

With `O=c1cc(-c2cccc(O)c2)oc2cc(O)ccc12`, the EC50 is above 25 µg/mL in the assay on HT-29; above 25 µg/mL with MCF7; 5.11 µg/mL (≈ 20.1 µM) with SK-MEL; above 25 µg/mL in the assay on A549; above 25 µg/mL with Malme-3M.

As to `COc1cc(-c2cc(=O)c3c(O)cccc3o2)cc(OC)c1O`, the EC50 with HT-29 was above 25 µg/mL; with MCF7, 0.51 µg/mL (≈ 1.62 µM); in the assay with SK-MEL, above 25 µg/mL; in the assay with A549, 0.74 µg/mL (≈ 2.35 µM); in the assay with Malme-3M, above 25 µg/mL.

Regarding `CC(C)(C)[Si](C)(C)Oc1ccc(-c2cc(=O)c3ccc(O)cc3o2)cc1`, the EC50 in the assay with HT-29 was 3.61 µg/mL (≈ 9.8 µM); in the assay on MCF7, 4.66 µg/mL (≈ 12.6 µM); in the assay with SK-MEL it was 5.64 µg/mL (≈ 15.3 µM); in the assay on A549 it was 6.45 µg/mL (≈ 17.5 µM); in the assay with Malme-3M, above 10 µg/mL.

`COc1cc(-c2cc(=O)c3ccc(O)cc3o2)cc(OC)c1O[Si](C)(C)C(C)(C)C`: the EC50 in the assay with HT-29 is 1 µg/mL (≈ 2.33 µM); in the assay with MCF7 it was 4.47 µg/mL (≈ 10.4 µM); with SK-MEL it was above 25 µg/mL; in the assay on A549, 5.3 µg/mL (≈ 12.4 µM); in the assay on Malme-3M, above 25 µg/mL.

With `COc1cc(-c2cc(=O)c3cc(O)ccc3o2)cc(OC)c1O`, the EC50 in the assay with HT-29 is above 25 µg/mL; in the assay with MCF7 it was above 25 µg/mL; in the assay on SK-MEL it was 5.68 µg/mL (≈ 18.1 µM); in the assay on A549, above 25 µg/mL; in the assay with Malme-3M, above 25 µg/mL.

For `COc1cc(-c2cc(=O)c3ccc(O)cc3o2)cc(OC)c1O`, the EC50 with HT-29 is 6.5 µg/mL (≈ 20.7 µM); in the assay with MCF7 it was above 25 µg/mL; with SK-MEL, above 25 µg/mL; in the assay with A549 it was above 25 µg/mL; with Malme-3M, above 25 µg/mL.

In the case of `COc1ccc2oc(-c3cc(OC)c(OC)c(OC)c3)cc(=O)c2c1`, the EC50 with HT-29, with MCF7, in the assay with SK-MEL, with A549 and with Malme-3M was above 25 µg/mL each time.

Turning to `COc1cc(-c2cc(=O)c3ccc(OC(C)=O)cc3o2)cc(OC)c1O`, the EC50 in the assay with HT-29, in the assay on MCF7, in the assay with SK-MEL, with A549 and in the assay on Malme-3M was above 25 µg/mL in each case.

Turning to `COc1cc(-c2cc(=O)c3ccc(OC(C)=O)c(OC(C)=O)c3o2)cc(OC)c1O[Si](C)(C)C(C)(C)C`, the EC50 was above 25 µg/mL with HT-29; above 25 µg/mL in the assay with MCF7; 0.14 µg/mL (≈ 0.265 µM) with SK-MEL; above 25 µg/mL in the assay on A549; 0.31 µg/mL (≈ 0.586 µM) with Malme-3M.

For `COc1cc(-c2cc(=O)c3ccc(O)c(O)c3o2)cc(OC)c1O`, the EC50 was 5.12 µg/mL (≈ 15.5 µM) in the assay on HT-29; above 25 µg/mL with MCF7; 6.33 µg/mL (≈ 19.2 µM) in the assay with SK-MEL; above 25 µg/mL in the assay with A549; above 25 µg/mL in the assay with Malme-3M.

As for `O=c1cc(-c2cccc(O)c2)oc2ccc(O)cc12`, the EC50 in the assay on HT-29, in the assay with MCF7, in the assay on SK-MEL, in the assay with A549 and in the assay with Malme-3M was above 25 µg/mL in each case.

With `COc1cc(-c2cc(=O)c3ccc(O)c(O)c3o2)cc(OC)c1O[Si](C)(C)C(C)(C)C`, the EC50 in the assay with HT-29 stood at 0.34 µg/mL (≈ 0.765 µM); with MCF7 it was 0.31 µg/mL (≈ 0.697 µM); in the assay on SK-MEL it was 0.11 µg/mL (≈ 0.247 µM); with A549 it was 3.31 µg/mL (≈ 7.45 µM); with Malme-3M, 0.2 µg/mL (≈ 0.45 µM).

With `O=c1cc(-c2cccc(O)c2)oc2cccc(O)c12`, the EC50 was 3.47 µg/mL (≈ 13.6 µM) in the assay on HT-29; 6.93 µg/mL (≈ 27.3 µM) in the assay with MCF7; 3.09 µg/mL (≈ 12.2 µM) in the assay with SK-MEL; 3.24 µg/mL (≈ 12.7 µM) in the assay with A549; above 10 µg/mL in the assay on Malme-3M.

`COc1cc(-c2cc(=O)c3ccc(OC(C)=O)cc3o2)cc(OC)c1O[Si](C)(C)C(C)(C)C`: the EC50 in the assay on HT-29 is 1.94 µg/mL (≈ 4.12 µM); in the assay with MCF7, 4.19 µg/mL (≈ 8.9 µM); with SK-MEL it was 0.8 µg/mL (≈ 1.7 µM); with A549 it was 2.9 µg/mL (≈ 6.16 µM); in the assay with Malme-3M, 2.95 µg/mL (≈ 6.27 µM).

`COc1ccc2c(=O)cc(-c3cc(OC)c(OC)c(OC)c3)oc2c1`: the EC50 with HT-29, in the assay on MCF7, with SK-MEL, in the assay on A549 and in the assay on Malme-3M was above 25 µg/mL throughout.

The values are drawn from ChEMBL document CHEMBL1150207, “Cytotoxicities of some flavonoid analogues” (1991).
